Reference: US20240285765A1, “PHTHALOCYANINE DYE COMPOUNDS, CONJUGATES AND METHODS OF USE THEREOF” (Rakuten Medical, Inc., priority 2021, published 2024)

Experiments:
[1] = Singlet oxygen quantum yield, indirect method with chemical quencher (DPBF or ADMA); assay type: physicochemical
Text: Photogeneration quantum yields of singlet oxygen (ΦΔ) were obtained by an indirect method, using either diphenylisobenzofuran (DBPF) or anthracene-9,10-bis-methylmalonate (ADMA) as chemical quenchers in either N,N-dimethylformamide or aqueous media, respectively. Typically, a solution of the phthalocyanine and the quencher was irradiated with a red LED lamp (670 nm) at 5 mW/cm^2. The initial DPBF or ADMA concentrations were kept the same for both the reference and the test samples. The degradation of the DPBF band at 414 nm or ADMA at 401 nm was monitored in a Varian Cary® 50 UV-Vis spectrophotometer, every five seconds in the case of DPBF (up to 30 seconds) and every minute in the case of ADMA (up to five minutes). ZnPc (ΦΔ=0.67) and AlPcSmix (ΦΔ=0.42) were used as references in N,N-dimethylformamide or aqueous media, respectively.
The relative method shown by Eq. (1) was employed for calculations of the ΦΔ:
[formula] • where ΦΔ and ΦΔref are the ^1O2 generation quantum yields for the sample and reference, respectively, m and mref are the DPBF or ADMA photobleaching rates in the presence of the phthalocyanine of the invention and the reference, respectively, and I and Iref are the rates of light absorption by the phthalocyanine derivative and reference, respectively. Concentrations of the test compound and reference were chosen such that their respective absorptions at the irradiation wavelength were the same.

[2] = Kinetic (aqueous) solubility in pH 7.4 DPBS, UV quantification; conditions: for solubility kinetic at 4 h: pH 7.4, aqueous buffer, kinetic from dmso stock; for Solubility* (kinetic solubility): pH 7.4 DPBS, 4 hours, room temperature (25° C.)
[3] = quencher ADMA, aqueous media, 670 nm LED 5 mW/cm^2, reference AlPcSmix

SMILES	ΦΔ (singlet oxygen quantum yield) [1, 3]	solubility kinetic at 4 h ([2]; 25 °C)	Solubility* (kinetic solubility) [2]	other results
C[Si](C)(CCC[N+](CCCCS(=O)(=O)O)(CCCCS(=O)(=O)O)CCCCS(=O)(=O)O)O[Si-2]123(O[Si](C)(C)CCC[N+](CCCCS(=O)(=O)O)(CCCCS(=O)(=O)O)CCOCCOCCOCCC(=O)O)n4c5c6ccccc6c4N=C4c6ccccc6C(=[N+]41)N=c1c4ccccc4c(n12)=NC1=[N+]3C(=N5)c2ccccc21.[Na+].[Na+].[Na+].[Na+] [Example 17, Sodium 2-((19-((dimethyl(3-(tris(4-sulfonatobutyl)ammonio)propyl)silyl)oxy)-19H-6,11-(azeno)-17,21-(azeno[3]episoindoloazeno)benzo[7,8][1,3,5,10]tetraaza[2]silacycloundecino[4,3-a:11,1-a′]diisoindol-19-yl)oxy)-2-methyl-6,6-bis(4-sulfonatobutyl)-9,12,15-trioxa-6-aza-2-silaoctadecan-6-ium-18-oate]	B (B: >0.5)	> 100 µg/mL	–	–
C[Si](C)(CCCNC(=O)COCC(=O)O)O[Si]1(O[Si](C)(C)CCCNC(=O)NCCS(=O)(=O)O)n2c3c4ccccc4c2N=C2N=C(N=c4c5ccccc5c(n41)=NC1=NC(=N3)c3ccccc31)c1ccccc12.N (stereo not drawn) [Example 7, Ammonium 2-(2-((3-(((19-((dimethyl(3-(3-(2-sulfonatoethyl)ureido)propyl)silyl)oxy)-19H-6,11-(azeno)-17,21-(azeno[1]episoindoloazeno)benzo[7,8][1,3,5,10]tetraaza[2]silacycloundecino[4,3-a:11,1-a′]diisoindol-19-yl)oxy)dimethylsilyl)propyl)amino)-2-oxoethoxy)acetate]	–	–	A (A: ≤1 μg/mL)	–
C[Si](C)(CCCNC(=O)COCC(=O)O)O[Si]1(O[Si](C)(C)CCCNC(=O)NCC(S(=O)(=O)O)S(=O)(=O)O)n2c3c4ccccc4c2N=C2N=C(N=c4c5ccccc5c(n41)=NC1=NC(=N3)c3ccccc31)c1ccccc12.N (stereo not drawn) [Example 8, Ammonium 2-(2-((3-(((19-(((3-(3-(2,2-disulfonatoethyl)ureido)propyl)dimethylsilyl)oxy)-19H-6,11-(azeno)-17,21-(azeno[1]episoindoloazeno)benzo[7,8][1,3,5,10]tetraaza[2]silacycloundecino[4,3-a:11,1-a′]diisoindol-19-yl)oxy)dimethylsilyl)propyl)amino)-2-oxoethoxy)acetate]	–	–	A (A: ≤1 μg/mL)	–
C[Si](C)(CCC[N+](CCCCS(=O)(=O)[O-])(CCCCS(=O)(=O)[O-])CCCCS(=O)(=O)[O-])O[Si@@]1(O[Si](C)(C)CCC[N+](CCCCS(=O)(=O)[O-])(CCCCS(=O)(=O)[O-])CCOCCOCCC(=O)[O-])n2c3c4ccccc4c2/N=C2N=C(/N=c4/c5ccccc5/c(n41)=N/C1=NC(=N\3)/c3ccccc31)c1ccccc1\2.[Na+].[Na+].[Na+].[Na+] [Example 18, Sodium 2-((19-((dimethyl(3-(tris(4-sulfonatobutyl)ammonio)propyl)silyl)oxy)-19H-6,11-(azeno)-17,21-(azeno[3]episoindoloazeno)benzo[7,8][1,3,5,10]tetraaza[2]silacycloundecino[4,3-a:11,1-a′]diisoindol-19-yl)oxy)-2-methyl-6,6-bis(4-sulfonatobutyl)-9,12-dioxa-6-aza-2-silapentadecan-6-ium-15-oate]	B (B: >0.5)	> 100 µg/mL	–	–
C[Si](C)(CCCNC(=O)CCCN(CCCS(=O)(=O)O)CCCS(=O)(=O)O)O[Si]1(O[Si](C)(C)CCCNC(=O)COCC(=O)O)n2c3c4ccccc4c2N=C2N=C(N=c4c5ccccc5c(n41)=NC1=NC(=N3)c3ccccc31)c1ccccc12.N (stereo not drawn) [Example 15, Ammonium 2-(2-((3-(((19-(((3-(4-(bis(3-sulfonatopropyl)ammonio)butanamido)propyl)dimethylsilyl)oxy)-19H-6,11-(azeno)-17,21-(azeno[1]episoindoloazeno)benzo[7,8][1,3,5,10]tetraaza[2]silacycloundecino[4,3-a:11,1-a′]diisoindol-19-yl)oxy)dimethylsilyl)propyl)amino)-2-oxoethoxy)acetate]	–	–	B (B: >1 μg/mL to ≤100 μg/mL)	–
COCCOCCOCC(=O)NCCC[Si](C)(C)O[Si-2]123(O[Si](C)(C)CCCNC(=O)CCCCC(=O)O)n4c5c6ccccc6c4N=C4c6ccccc6C(=[N+]41)N=c1c4ccccc4c(n12)=NC1=[N+]3C(=N5)c2ccccc21 [Example 1, 6-((3-(dimethyl((19-((15-methyl-10-oxo-2,5,8-trioxa-11-aza-15-silahexadecan-15-yl)oxy)-19H-6,11-(azeno)-17,21-(azeno[3]episoindoloazeno)benzo[7,8][1,3,5,10]tetraaza[2]silacycloundecino[4,3-a:11,1-a′]diisoindol-19-yl)oxy)silyl)propyl)amino)-6-oxohexanoic acid]	–	–	–	ΦΔ (singlet oxygen quantum yield) ([1]; quencher DPBF, N,N-dimethylformamide, 670 nm LED 5 mW/cm^2, reference ZnPc): A (A: ≤0.5)
COCCOCCOCCN(CCCOC(=O)NCCC[Si](C)(C)O[Si-2]123(O[Si](C)(C)CCCNC(=O)COCC(=O)O)n4c5c6ccccc6c4N=C4c6ccccc6C(=[N+]41)N=c1c4ccccc4c(n12)=NC1=[N+]3C(=N5)c2ccccc21)CCOCCOCCOC [Example 3, 2-(2-((3-(((19-((11-(2-(2-(2-methoxyethoxy)ethoxy)ethyl)-21-methyl-16-oxo-2,5,8,15-tetraoxa-11,17-diaza-21-siladocosan-21-yl)oxy)-19H-6,11-(azeno)-17,21-(azeno[3]episoindoloazeno)benzo[7,8][1,3,5,10]tetraaza[2]silacycloundecino[4,3-a:11,1-a′]diisoindol-19-yl)oxy)dimethylsilyl)propyl)amino)-2-oxoethoxy)acetic acid]	–	–	–	solubility kinetic at 4 h ([2]; Dulbecco's phosphate-buffered saline (DPBS), pH 7.4, 25 °C): < 1 µg/mL
C[Si](C)(CCCNC(=O)CCC[N+](CCCS(=O)(=O)[O-])(CCCS(=O)(=O)O)CCCS(=O)(=O)O)O[Si]1(O[Si](C)(C)CCCNC(=O)COCC(=O)O)n2c3c4ccccc4c2N=C2N=C(N=c4c5ccccc5c(n41)=NC1=NC(=N3)c3ccccc31)c1ccccc12.N (stereo not drawn) [Example 5, Ammonium 3-((4-((3-(((19-(((3-(2-(carboxymethoxy)acetamido)propyl)dimethylsilyl)oxy)-19H-6,11-(azeno)-17,21-(azeno[3]episoindoloazeno)benzo[7,8][1,3,5,10]tetraaza[2]silacycloundecino[4,3-a:11,1-a′]diisoindol-19-yl)oxy)dimethylsilyl)propyl)amino)-4-oxobutyl)bis(3-sulfopropyl)ammonio)propane-1-sulfonate]	B (B: >0.5)	–	–	–
C[Si](C)(CCC[N+](CCCS(=O)(=O)[O-])(CCCS(=O)(=O)[O-])CCCS(=O)(=O)[O-])O[Si@@]1(O[Si](C)(C)CCC[N+](CCCS(=O)(=O)[O-])(CCCS(=O)(=O)[O-])CCOCCOCCOCCC(=O)[O-])n2c3c4ccccc4c2/N=C2N=C(/N=c4/c5ccccc5/c(n41)=N/C1=NC(=N\3)/c3ccccc31)c1ccccc1\2.[Na+].[Na+].[Na+].[Na+] [Example 19, Sodium 2-((19-((dimethyl(3-(tris(3-sulfonatopropyl)ammonio)propyl)silyl)oxy)-19H-6,11-(azeno)-17,21-(azeno[3]episoindoloazeno)benzo[7,8][1,3,5,10]tetraaza[2]silacycloundecino[4,3-a:11,1-a′]diisoindol-19-yl)oxy)-2-methyl-6,6-bis(3-sulfonatopropyl)-9,12,15-trioxa-6-aza-2-silaoctadecan-6-ium-18-oate]	B (B: >0.5)	> 100 µg/mL	–	–
